This assay deals with BDF1 mice, s.c. Lewis lung carcinoma, T/C %. The assay can be described thus: NCI In Vivo Anticancer Drug Screen. Data for tumor model Lewis Lung Carcinoma (subcutaneous) in B6D2F1 (BDF1) mice. The procedure, abridged: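 First, mice carry a transplantable tumor. Next, groups receive either compound or vehicle. Finally, survival or tumor dimensions in the dosed animals are divided by the corresponding control figure.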

[1] abbreviates: endpoint: mean tumor weight, dose: 100.0 mg/kg/injection, schedule: Q01DX011 (ip), vehicle: carboxymethylcellulose (CMC), higher = larger tumour.

The source of these data is PubChem BioAssay AID270 (DTP/NCI, 2004).

“And” between values parts separate entries of the source, which are not always exact repeats. Equal entries are not always repeated. Records with an inconclusive call do not appear.

For the molecule `[Cl][Ni+2][Cl].[NH-]CCN1CC1`, the T/C by setting is: (endpoint: median survival time, dose: 1.56 mg/kg/injection, schedule: Q01DX009 (ip), vehicle: saline, higher = longer survival) 103 % of control and 115 % of control; (endpoint: median survival time, dose: 12.5 mg/kg/injection, schedule: Q01DX009 (ip), vehicle: saline, higher = longer survival) 100 % of control.

Turning to `CCCN(/C=C/C=C/C=[N+](CCC)CCC)CCC`, the T/C is, setting by setting: (endpoint: median survival time, dose: 0.03 mg/kg/injection, schedule: Q01DX009 (ip), vehicle: saline, higher = longer survival) 114 % of control; (endpoint: median survival time, dose: 0.05 mg/kg/injection, schedule: Q01DX009 (ip), vehicle: saline, higher = longer survival) 100 % of control; (endpoint: median survival time, dose: 0.1 mg/kg/injection, schedule: Q01DX009 (ip), vehicle: saline, higher = longer survival) 115 % of control; (endpoint: median survival time, dose: 0.2 mg/kg/injection, schedule: Q01DX009 (ip), vehicle: saline, higher = longer survival) 108 % of control.

For the molecule `Fc1ccc(NC(=S)Nc2cc(Cl)cc(Cl)c2)cc1`, the T/C (endpoint: mean tumor weight, dose: 7.5 mg/kg/injection, schedule: Q01DX011 (ip), vehicle: carboxymethylcellulose (CMC), higher = larger tumour) was 60 % of control.

On to `O=C(O)/C=C\C(=O)Nc1nccs1`, for which the T/C (endpoint: mean tumor weight, dose: 50.0 mg/kg/injection, schedule: Q01DX011 (ip), vehicle: carboxymethylcellulose (CMC), higher = larger tumour) was 87 % of control and the T/C under setting [1] was 85 % of control.

Turning to `CN[C@@H](C)[C@@H](O)c1ccccc1`, the T/C is, setting by setting: (endpoint: mean tumor weight, dose: 25.0 mg/kg/injection, schedule: Q01DX011 (ip), vehicle: carboxymethylcellulose (CMC), higher = larger tumour) 123 % of control; under setting [1], 85 % of control; (endpoint: mean tumor weight, dose: 200.0 mg/kg/injection, schedule: Q01DX011 (ip), vehicle: carboxymethylcellulose (CMC), higher = larger tumour) 72 % of control.

For the molecule `COc1cc(N(CCCl)CCCl)ccc1NC(=O)c1ccccc1`, the T/C is, setting by setting: (endpoint: mean tumor weight, dose: 12.5 mg/kg/injection, schedule: Q01DX011 (ip), vehicle: Klucel (hydroxypropylcellulose) (HPC), higher = larger tumour) 68 % of control; (endpoint: mean tumor weight, dose: 25.0 mg/kg/injection, schedule: Q01DX011 (ip), vehicle: Klucel (hydroxypropylcellulose) (HPC), higher = larger tumour) 48 % of control.

In the case of `CN(C)CC(C(=O)c1ccc(Br)cc1)C(Br)c1ccccc1` (stereo not drawn), the T/C was 107 % of control (endpoint: median survival time, dose: 5.0 mg/kg/injection, schedule: Q01DX009 (ip), vehicle: saline, higher = longer survival); 100 % of control (endpoint: median survival time, dose: 10.0 mg/kg/injection, schedule: Q01DX009 (ip), vehicle: saline, higher = longer survival); 119 % of control (endpoint: median survival time, dose: 40.0 mg/kg/injection, schedule: Q01DX009 (ip), vehicle: saline, higher = longer survival).

On to `COc1c(OC)c(OC)c2c(=O)cc(-c3ccc(OC(C)=O)cc3)oc2c1OC`, for which the T/C (endpoint: mean tumor weight, dose: 50.0 mg/kg/injection, schedule: Q01DX010 (sc), vehicle: steriod suspending solution, higher = larger tumour) is 97 % of control; the T/C (endpoint: mean tumor weight, dose: 100.0 mg/kg/injection, schedule: Q01DX010 (sc), vehicle: steriod suspending solution, higher = larger tumour) is 74 % of control; the T/C (endpoint: mean tumor weight, dose: 200.0 mg/kg/injection, schedule: Q01DX010 (sc), vehicle: steriod suspending solution, higher = larger tumour) is 76 % of control; the T/C (endpoint: mean tumor weight, dose: 400.0 mg/kg/injection, schedule: Q01DX010 (sc), vehicle: steriod suspending solution, higher = larger tumour) is 77 % of control.

On to `CCCC(Sc1nc(N)nc2nc[nH]c12)C(=O)O` (stereo not drawn), for which the T/C runs as follows: (endpoint: mean tumor weight, dose: 5.0 mg/kg/injection, schedule: Q01DX011 (ip), vehicle: other, higher = larger tumour) 115 % of control; (endpoint: mean tumor weight, dose: 10.0 mg/kg/injection, schedule: Q01DX011 (ip), vehicle: other, higher = larger tumour) 58 % of control; (endpoint: mean tumor weight, dose: 20.0 mg/kg/injection, schedule: Q01DX011 (ip), vehicle: other, higher = larger tumour) 17 % of control; (endpoint: mean tumor weight, dose: 40.0 mg/kg/injection, schedule: Q01DX011 (ip), vehicle: other, higher = larger tumour) 49 % of control and 69 % of control; (endpoint: mean tumor weight, dose: 160.0 mg/kg/injection, schedule: Q01DX011 (ip), vehicle: other, higher = larger tumour) 64 % of control; (endpoint: mean tumor weight, dose: 320.0 mg/kg/injection, schedule: Q01DX011 (ip), vehicle: other, higher = larger tumour) 50 % of control and 69 % of control. For the same molecule, the T/C (endpoint: mean tumor weight, dose: 640.0 mg/kg/injection, schedule: Q01DX011 (ip), vehicle: other, higher = larger tumour) is 48 % of control.

For the molecule `COc1ccc(OCC(O)CN2CCN(c3ccc(Cl)cc3)CC2)cc1` (stereo not drawn), the T/C is 90 % of control (endpoint: median survival time, dose: 12.5 mg/kg/injection, schedule: Q01DX009 (ip), vehicle: Klucel (hydroxypropylcellulose) (HPC), higher = longer survival); 87 % of control (endpoint: median survival time, dose: 25.0 mg/kg/injection, schedule: Q01DX009 (ip), vehicle: Klucel (hydroxypropylcellulose) (HPC), higher = longer survival); 96 % of control (endpoint: median survival time, dose: 50.0 mg/kg/injection, schedule: Q01DX009 (ip), vehicle: Klucel (hydroxypropylcellulose) (HPC), higher = longer survival); 90 % of control (endpoint: median survival time, dose: 100.0 mg/kg/injection, schedule: Q01DX009 (ip), vehicle: Klucel (hydroxypropylcellulose) (HPC), higher = longer survival); 89 % of control (endpoint: median survival time, dose: 200.0 mg/kg/injection, schedule: Q01DX009 (ip), vehicle: Klucel (hydroxypropylcellulose) (HPC), higher = longer survival).

`CCCCCC/C=C/[N+]([O-])=NC(COC)C(C)O` (stereo not drawn): the T/C reads like this: (endpoint: mean tumor weight, dose: 5.0 mg/kg/injection, schedule: Q01DX011 (ip), vehicle: carboxymethylcellulose (CMC), higher = larger tumour) 84 % of control; (endpoint: mean tumor weight, dose: 10.0 mg/kg/injection, schedule: Q01DX011 (ip), vehicle: carboxymethylcellulose (CMC), higher = larger tumour) 96 % of control.

Take `Cc1cc(NCCCCCCNc2cc(C)nc3ccc(N)cc23)c2cc(N)ccc2n1`: the T/C is, setting by setting: (endpoint: median tumor weight (est.), dose: 18.75 mg/kg/injection, schedule: Q01DX009 (ip), vehicle: Klucel (hydroxypropylcellulose) (HPC), higher = larger tumour) 75 % of control; (endpoint: median tumor weight (est.), dose: 37.5 mg/kg/injection, schedule: Q01DX009 (ip), vehicle: Klucel (hydroxypropylcellulose) (HPC), higher = larger tumour) 54 % of control; (endpoint: median tumor weight (est.), dose: 37.5 mg/kg/injection, schedule: Q01DX009 (oral), vehicle: Klucel (hydroxypropylcellulose) (HPC), higher = larger tumour) 90 % of control; (endpoint: median tumor weight (est.), dose: 75.0 mg/kg/injection, schedule: Q01DX009 (ip), vehicle: Klucel (hydroxypropylcellulose) (HPC), higher = larger tumour) 27 % of control; (endpoint: median tumor weight (est.), dose: 75.0 mg/kg/injection, schedule: Q01DX009 (oral), vehicle: Klucel (hydroxypropylcellulose) (HPC), higher = larger tumour) 102 % of control; (endpoint: median tumor weight (est.), dose: 150.0 mg/kg/injection, schedule: Q01DX009 (oral), vehicle: Klucel (hydroxypropylcellulose) (HPC), higher = larger tumour) 102 % of control. In addition, the T/C (endpoint: median tumor weight (est.), dose: 300.0 mg/kg/injection, schedule: Q01DX009 (oral), vehicle: Klucel (hydroxypropylcellulose) (HPC), higher = larger tumour) was 84 % of control and the T/C (endpoint: median tumor weight (est.), dose: 600.0 mg/kg/injection, schedule: Q01DX009 (oral), vehicle: Klucel (hydroxypropylcellulose) (HPC), higher = larger tumour) is 83 % of control.
